# ChEMBL document CHEMBL1201862, “PubChem BioAssay data set” (2004)
# Structures can show the parent of a compound that is named as a salt. Active and inactive are the calls of the source.
# Experiments:
# [1] = target: Dual specificity tyrosine-phosphorylation-regulated kinase 1A (Rattus norvegicus, UniProt Q63470); type: biochemical, Homo sapiens
# BJ [2] = assay: cytotoxicity toward BJ-TERT fibroblasts, dose response, cell-based, RAS-independent, luminescence (AID 1933); type: functional; details: Homo sapiens
# [3] = target: T1, Heat shock factor protein 1 (Mus musculus, UniProt P38532); assay: inhibition of MG132-induced HSE-luciferase signal, confirmation, cell-based, NIH3T3, luminescence, dose retest (AID 2382); type: functional;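 further: NIH3T3 fibroblasts with HSF1-driven luciferase reporter stressed by proteasome inhibitor MG132; luminescence from HSF1-driven luciferase expression after 8 hours of MG132 stress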
# T1 sequence (P38532 whole entry): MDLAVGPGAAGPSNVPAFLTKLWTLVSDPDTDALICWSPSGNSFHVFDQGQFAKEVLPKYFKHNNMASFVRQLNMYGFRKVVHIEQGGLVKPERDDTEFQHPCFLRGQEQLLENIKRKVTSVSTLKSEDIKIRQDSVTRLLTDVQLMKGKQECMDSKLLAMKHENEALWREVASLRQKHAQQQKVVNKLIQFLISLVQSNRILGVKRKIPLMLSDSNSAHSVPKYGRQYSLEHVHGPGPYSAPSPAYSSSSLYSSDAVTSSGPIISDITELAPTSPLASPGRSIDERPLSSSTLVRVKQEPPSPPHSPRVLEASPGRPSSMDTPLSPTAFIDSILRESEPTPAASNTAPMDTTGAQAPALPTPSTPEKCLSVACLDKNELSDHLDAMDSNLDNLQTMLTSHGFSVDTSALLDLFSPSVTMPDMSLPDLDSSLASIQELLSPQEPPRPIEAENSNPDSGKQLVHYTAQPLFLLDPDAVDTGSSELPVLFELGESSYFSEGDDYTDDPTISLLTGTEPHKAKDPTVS
# BJ [4] = assay: cells; type: functional, cell-based; details: Homo sapiens
# BJ [5] = assay: cytotoxicity toward BJ-TERT-LT-ST fibroblasts, dose response, cell-based, RAS-independent, luminescence (AID 1935); type: functional; details: Homo sapiens;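 further: BJ fibroblasts immortalized with TERT plus LT and ST oncogenes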
# [6] = cytotoxicity toward DRD oncogenic fibroblasts, dose response, cell-based, non-viral oncogenic, luminescence (AID 1934); type: functional; details: Homo sapiens
# [7] = cytotoxicity in HEK-293T cells, dose response, cytotoxicity control for TCR NF-kB inhibitor project, luminescence, T-cell screen hits (AID 489026); type: functional, cell-based;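 further: cells exposed to compound about 14 hours before the viability readout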
# [8] = A cytotoxicity screen of small molecule inhibitors of the PhoP region in Salmonella typhi identified in the primary screen. [Related pubchem assays: 1850, 1864, 1985 ]; type: functional
# [9] = target: T2, Rac GTPase-activating protein 1 (Homo sapiens, UniProt Q9H0H5); assay: MgcRacGAP GTPase-activating activity inhibitors, confirmation, biochemical, ADP Hunter fluorescence, primary and confirmatory (AID 624330); type: functional
# T2 sequence (Q9H0H5 whole entry): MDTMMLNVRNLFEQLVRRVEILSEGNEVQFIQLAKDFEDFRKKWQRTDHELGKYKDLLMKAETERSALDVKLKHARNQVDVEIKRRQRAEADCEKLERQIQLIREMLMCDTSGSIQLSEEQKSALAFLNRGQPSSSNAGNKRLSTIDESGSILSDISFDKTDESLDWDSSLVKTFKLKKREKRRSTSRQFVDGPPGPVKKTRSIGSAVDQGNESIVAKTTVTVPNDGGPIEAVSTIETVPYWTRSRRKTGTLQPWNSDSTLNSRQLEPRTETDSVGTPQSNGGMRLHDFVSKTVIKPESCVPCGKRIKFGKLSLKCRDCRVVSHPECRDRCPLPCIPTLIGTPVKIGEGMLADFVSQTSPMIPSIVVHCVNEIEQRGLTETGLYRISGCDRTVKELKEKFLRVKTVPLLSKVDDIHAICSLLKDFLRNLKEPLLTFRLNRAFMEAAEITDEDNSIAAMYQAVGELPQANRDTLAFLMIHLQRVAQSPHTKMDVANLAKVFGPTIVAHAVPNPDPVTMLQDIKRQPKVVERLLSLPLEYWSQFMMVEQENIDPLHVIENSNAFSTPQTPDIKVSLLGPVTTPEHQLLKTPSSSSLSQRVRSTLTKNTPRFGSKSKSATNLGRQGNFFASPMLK
# cells [10] = type: functional, cell-based
# cells [11] = type: functional, cell-based; remark: listed apart in the source
# Vero = assay: cells; type: functional; details: Chlorocebus sabaeus
# [12] = inhibitors of firefly luciferase expression or activity, dose response, H4 neuroglioma cells, luminescence (AID 1990); type: functional, cell-based
# [13] = Luminescence Cell-Based Dose Response HTS to Identify Inhibitors of 5'UTR Stem-Loop Driven Prion Protein mRNA Translation in H4 Neuroglioblastoma Cells. [Related pubchem assays: 1827 (Project Summary), 1813 (Primary HTS)]; type: functional
# [14] = inhibitors of SNCA 5'UTR-driven reporter translation, confirmation, H4 neuroglioma cells, luminescence (AID 1988); type: functional, cell-based
# Cytochrome P450 3A4 = Cytochrome P450 3A4 (Homo sapiens, UniProt P08684);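 further: CYP3A4 tested as one member of a cytochrome P450 panel screen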
# [15] = test system: Streptococcus sp. 'group A'; assay: growth inhibition of control SK(-) GAS strain, dose response, counter-screen for streptokinase expression inhibitor project, luminescence, kanamycin, BacTiterGlo, confirmation (AID 1900); type: functional, organism-based
# Streptokinase A = target: T3, Streptokinase A (Streptococcus pyogenes serotype M1, UniProt P10520); assay: S. pyogenes streptokinase expression inhibitors, potency, dose response, plasminogen activation absorbance, OD405 (AID 1914); type: functional, Streptococcus pyogenes M1 GAS;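 further: secreted streptokinase activity via plasminogen activation per viability signal from cell pellet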
# T3 sequence (P10520 whole entry): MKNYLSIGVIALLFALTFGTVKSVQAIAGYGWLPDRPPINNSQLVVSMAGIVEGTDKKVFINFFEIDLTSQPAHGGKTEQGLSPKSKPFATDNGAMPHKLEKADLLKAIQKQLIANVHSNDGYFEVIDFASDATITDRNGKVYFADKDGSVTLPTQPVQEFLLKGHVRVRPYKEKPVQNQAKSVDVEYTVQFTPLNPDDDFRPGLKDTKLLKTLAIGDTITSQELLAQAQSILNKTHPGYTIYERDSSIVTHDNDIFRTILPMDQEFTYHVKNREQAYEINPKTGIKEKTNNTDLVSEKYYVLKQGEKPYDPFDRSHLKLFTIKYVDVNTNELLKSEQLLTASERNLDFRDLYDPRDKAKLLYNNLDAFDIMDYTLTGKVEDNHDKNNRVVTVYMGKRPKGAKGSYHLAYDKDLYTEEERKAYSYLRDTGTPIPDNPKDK
# Streptococcus = assay: Group A Streptococcus viability loss, dose response, counter-screen for streptokinase expression inhibitor project, luminescence, BacTiterGlo (AID 1915); type: functional, organism-based;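 further: potency for reduction of bacterial viability or growth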
# [16] = target: T4, Calpain-2 catalytic subunit (Sus scrofa, UniProt P43367); assay: pig calpain II inhibitor potency, dose response, biochemical, fluorogenic peptide substrate (AID 1420); type: functional
# T4 sequence (P43367 whole entry): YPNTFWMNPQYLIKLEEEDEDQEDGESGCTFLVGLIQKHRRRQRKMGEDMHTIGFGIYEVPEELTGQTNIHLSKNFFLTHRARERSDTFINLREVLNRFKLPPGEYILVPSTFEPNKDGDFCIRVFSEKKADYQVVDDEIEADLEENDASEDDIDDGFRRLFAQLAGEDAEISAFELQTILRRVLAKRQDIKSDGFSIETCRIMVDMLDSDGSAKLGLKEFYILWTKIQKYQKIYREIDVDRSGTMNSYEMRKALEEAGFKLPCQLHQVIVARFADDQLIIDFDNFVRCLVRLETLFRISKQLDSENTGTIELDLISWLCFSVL
# [17] = target: T1, Heat shock factor protein 1; assay: HSF1 potentiators in luciferase reporter cells, confirmation, cell-based, NIH3T3, luminescence, dose retest (AID 435004); type: functional;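 further: stress induced by proteasome inhibitor MG132 added 30 min after compound; luciferase reporter driven by HSF1 response element in NIH3T3 cells; actives raise luminescence as potentiators of the MG132 stress response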
# Cytochrome P450 2D6 = Cytochrome P450 2D6 (Homo sapiens, UniProt P10635);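 further: CYP2D6 member of a cytochrome P450 panel assay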
# P388/ADR = assay: cells; type: functional; details: Mus musculus
# SN12K1 = assay: cells; type: functional; details: Homo sapiens
# P388 = assay: cells; type: functional; details: Mus musculus
# [18] = microbe, parasite or virus in culture; type: functional; details: Mycobacterium tuberculosis
# [19] = THP-1 cell cytotoxicity, dose response, cytotoxicity control for non-replicating M. tuberculosis project (AID 489025); type: functional
# cells [20] = type: functional
# [21] = NIH-3T3 fibroblast cytotoxicity, dose response, cytotoxicity control, cell-based, fluorescence, Alamar Blue, secondary assay (AID 2327); type: functional;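 further: NIH-3T3 mouse fibroblasts cultured with fluconazole at 8 µg/mL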
# [22] = C. albicans growth with fluconazole, confirmation, fluorescence, retest (AID 2467); type: functional, cell-based
# Nonstructural protein 1 = Nonstructural protein 1 (Influenza A virus, UniProt Q194T2); type: functional, Influenza A virus (A/California/07/2009(H1N1))
# INS1 = assay: beta cell apoptosis inhibitors, cytokine rescue, dose response, luminescence, retest (AID 449756); type: functional, cell-based; details: Rattus norvegicus;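 further: cell death triggered by IL-1 beta plus TNF-alpha plus IFN-gamma mixture; protective hits raise ATP signal compared with cytokine alone wells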
# Chain of Cytochrome P450 3A4 (P08684 whole entry): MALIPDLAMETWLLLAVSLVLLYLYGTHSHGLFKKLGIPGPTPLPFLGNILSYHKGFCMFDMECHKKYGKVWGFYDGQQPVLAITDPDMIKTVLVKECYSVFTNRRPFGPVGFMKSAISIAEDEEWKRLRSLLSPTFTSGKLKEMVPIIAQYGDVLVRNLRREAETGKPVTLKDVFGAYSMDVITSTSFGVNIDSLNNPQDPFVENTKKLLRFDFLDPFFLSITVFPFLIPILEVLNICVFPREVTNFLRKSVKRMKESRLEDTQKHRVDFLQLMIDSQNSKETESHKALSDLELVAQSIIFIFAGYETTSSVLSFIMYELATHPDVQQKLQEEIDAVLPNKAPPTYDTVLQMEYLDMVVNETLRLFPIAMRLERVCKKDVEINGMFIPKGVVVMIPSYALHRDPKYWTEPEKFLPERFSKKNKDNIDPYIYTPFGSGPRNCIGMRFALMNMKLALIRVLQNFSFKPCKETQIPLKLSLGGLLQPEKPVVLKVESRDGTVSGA
# Chain of Cytochrome P450 2D6 (P10635 whole entry): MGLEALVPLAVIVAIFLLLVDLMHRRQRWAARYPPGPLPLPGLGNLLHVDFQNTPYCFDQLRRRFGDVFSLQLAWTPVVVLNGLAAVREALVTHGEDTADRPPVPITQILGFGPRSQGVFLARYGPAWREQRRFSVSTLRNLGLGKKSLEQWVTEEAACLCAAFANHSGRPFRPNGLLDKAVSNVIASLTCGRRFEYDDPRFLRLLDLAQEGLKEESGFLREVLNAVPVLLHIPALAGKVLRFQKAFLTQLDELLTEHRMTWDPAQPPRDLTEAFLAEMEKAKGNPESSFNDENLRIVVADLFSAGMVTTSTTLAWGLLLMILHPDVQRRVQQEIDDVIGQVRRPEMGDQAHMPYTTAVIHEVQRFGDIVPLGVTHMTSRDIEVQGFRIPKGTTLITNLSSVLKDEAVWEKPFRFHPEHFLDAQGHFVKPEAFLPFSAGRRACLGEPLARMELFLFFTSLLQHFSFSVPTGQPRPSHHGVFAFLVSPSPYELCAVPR
# Chain of Nonstructural protein 1 (Q194T2 whole entry): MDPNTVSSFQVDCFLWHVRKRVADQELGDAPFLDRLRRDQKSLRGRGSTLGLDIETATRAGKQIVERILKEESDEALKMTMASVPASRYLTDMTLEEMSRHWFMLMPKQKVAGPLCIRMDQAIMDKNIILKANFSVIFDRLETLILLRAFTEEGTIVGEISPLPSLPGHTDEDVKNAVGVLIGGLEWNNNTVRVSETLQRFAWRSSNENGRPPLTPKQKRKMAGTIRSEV
smiles,measurement,setting,value
Fc1ccc(C2Nc3cccc4cccc(c34)N2)cc1,AC50,[1],16.4 µM (active)
Cc1ccc(C(=O)Nc2cc3ccccc3oc2=O)cc1,EC50,BJ [2],18.4 µM (active)
same,EC50,[3],0.21 µM (active)
same,EC50,BJ [4],9.35 µM (active)
same,EC50,BJ [5],24 µM (active)
same,EC50,[6],6.97 µM (active)
same,IC50,[7],> 80 µM (inactive)
C=C(C)Cn1c(-c2ccc(OC)cc2)nc2ccccc21,EC50,[8],> 50 µM (active)
COc1cc(C2C(=O)c3ccccc3C2=O)ccc1O,AC50,[1],3.44 µM (active)
same,IC50,[9],16.1 µM (active)
Cc1noc(C)c1COc1cccc(C(=O)OCC(=O)N2CC(=O)Nc3ccccc32)c1,IC50,[7],> 80 µM (inactive)
CCOC(=O)C1=C(c2ccccc2)NC(=O)NC1c1ccc(O)c(Cl)c1 (configuration not stated),EC50,cells [10],> 350 µM (not active)
same,EC50,cells [11],> 350 µM (not active)
same,CC50,Vero,22.5 µM (active)
CCO[C@@H]1OC(C(=O)NCc2nc3ccccc3[nH]2)=C[C@H](C(C)(C)C)[C@H]1CCCO,EC50,[12],> 60 µM (not active)
same,EC50,[13],10.5 µM (active)
same,EC50,[14],0.297 µM (inconclusive)
same,IC50,[7],> 80 µM (inactive)
CS(=O)(=O)c1cnc2c(-c3ccc(F)cc3)cnn2c1N,EC50,[8],> 50 µM (active)
same,AC50,Cytochrome P450 3A4,28.2 µM (inconclusive)
COCCCn1c(N)c(C(=O)Nc2ccccc2)c2nc3ccccc3nc21,EC50,[15],16.9 µM (active)
same,EC50,Streptokinase A,> 150 µM (not active)
same,EC50,Streptococcus,32.8 µM (active)
same,CC50,Vero,> 25 µM (active)
COc1ccc(OC)c(/C=C2\SC(=S)N(Cc3cccnc3)C2=O)c1,CC50,Vero,14.8 µM (active)
O=C1CC(c2cccc(Br)c2)c2cc3c(cc2N1)CCC3 (configuration not stated),IC50,[16],> 50 µM (not active)
same,IC50,[7],> 80 µM (inactive)
Fc1ccc(NC(S)=NCc2ccccc2Cl)cc1,EC50,[8],> 50 µM (active)
c1ccc(-c2nc3ccccc3[nH]2)cc1,EC50,[8],> 50 µM (active)
same,EC50,[3],> 195 µM (not active)
Cc1noc(NS(=O)(=O)c2ccc(NC(=O)c3oc4ccc(F)cc4c3C)cc2)c1C,EC50,[17],> 260 µM (inactive)
same,AC50,[1],9.87 µM (active)
COc1ccccc1N1CCN(C(=O)c2ccc(-c3ccc(Cl)cc3)o2)CC1,IC50,[7],72.7 µM (inactive)
O=C1SC(c2ccccc2)=C/C1=C\N1CCCCC1,EC50,[8],> 50 µM (active)
same,AC50,[1],2.83 µM (active)
same,IC50,[9],45.9 µM (active)
same,AC50,Cytochrome P450 2D6,25.1 µM (inconclusive)
same,AC50,Cytochrome P450 3A4,25.1 µM (inconclusive)
CC1(CO)C(O)CCC2(C)C1C(O)CC1CC3CC12CCC3(O)CO (configuration not stated),GI50,P388/ADR,187 µM (inactive)
same,GI50,SN12K1,209 µM (inactive)
same,GI50,P388,11.2 µM (inactive)
CCOCC(=O)N(C)c1cccc2c3c(n(C)c12)CCCCC3,GI50,P388/ADR,> 100 µM (inactive)
same,GI50,SN12K1,> 100 µM (inactive)
same,GI50,P388,> 100 µM (inactive)
COC1CC(C)C(OC)c2cc(O)cc(c2O)NC(=O)/C(C)=C/C=C\C(C)C(OC(N)=O)/C(C)=C\C(C)C1OC (configuration not stated),GI50,P388/ADR,1.55 µM (inactive)
same,GI50,P388,0.0693 µM (active)
N=C(N)/N=N/c1c(O)[nH]c2ccc(Br)cc12,AC50,[1],5.14 µM (active)
Cc1ccc(S(=O)(=O)/N=C(\CCl)N2CCOCC2)cc1,CC50,[18],> 40 µM (active)
same,CC50,[19],30.1 µM (active)
same,IC50,cells [20],10.8 µM (active)
Cc1nnc(N/N=C/c2ccccn2)nc1O,EC50,[21],4.26 µM (active)
same,EC50,BJ [2],1.69 µM (active)
same,EC50,cells [10],7.24 µM (active)
same,EC50,BJ [4],4.02 µM (active)
same,EC50,[22],2.72 µM (active)
same,EC50,cells [11],> 350 µM (not active)
same,EC50,BJ [5],5.42 µM (active)
same,EC50,[6],5.38 µM (inconclusive)
same,IC50,[7],> 80 µM (inactive)
same,IC50,Nonstructural protein 1,3.92 µM (active)
same,AC50,INS1,1.56 µM (active)
O=C1C=C2SC3C[C@@]24CC1(O)[N+]1=c2c4c(c(O)c4c2=C(C=N4)CC1)N3,GI50,P388/ADR,1.3 µM (inactive)
same,GI50,SN12K1,1.29 µM (inactive)
same,GI50,P388,0.869 µM (active)
NC1CCN(c2nc3c(cc2F)c(=O)c(C(=O)O)cn3-c2ccc(F)cc2F)C1 (configuration not stated) [TOSUFLOXACIN TOSYLATE],EC50,[8],> 50 µM (active)
same,EC50,[15],0.276 µM (active)
same,EC50,Streptococcus,0.999 µM (active)
